Values joined by “and” are separate entries in the source; they are usually repeats but may differ in a detail not shown here. Equal values may be shown once.
Assays:
[1] = system: TAMs; assay: Ki67 FACS of TAMs induced by CSF1; assay type: cell-based, mouse
Experimental: Flow cytometry analyses were performed using antibodies listed in Supplementary Table 8. For cell surface markers, mouse TAM suspensions were stained with mouse APC-CD45, FITC-CD11b, PE-F4/80 or APC-F4/80, CD68, and PE-CD206 antibodies for 15 min on ice. For Ki67 staining, cells were fixed in 4% paraformaldehyde and stained with FITC-Ki67. Isotype matching antibody served as the negative control. Flow cytometry was performed on a FACSCalibur (BD Biosciences). Data were analyzed with BD CellQuest Pro software version 5.1.
Supplementary Figure 14. NHWD-870 and BRD4 deletion partially inhibite d prolifera tion of TAMs […]
(a) CD45+CD11b+F4/80 + TAMs in the orthotopic B16 melanoma model were harvested from tumors. Shown are representative FACS plots of TAMs. (b,c) Representative FACS plots (b) and quantification (c) of Ki67+ macrophages treated with 50 ng/ml CSF1, and DMSO or 25 or 50 nM NHWD-870. […]
TAMs induced by CSF1. (a-c) CD11b+F4/80+ macrophages in the orthotopic B16F10 melanoma model were harvested from tumor tissues. Shown are representative CD45+, CD11b+, F4/80+ FACS plots (a) and quantification of the percentage of Ki67+ cells after treatment with DMSO or NHWD-870 dependent on CSF1 stimulation (b,c). (d-g) FACS plots and quantification of the percentage of Ki67+ cells after CRISPR/Cas9-mediated BRD4 knockout (d,e) and c-MYC knockout (f,g) in CD11b+F4/80+ macrophages. CSF1 is added at the indicated concentration.
Please also see response to comment # 4 about our 2D assays, in which we used colony number to quantify the number of TAMs.
NHWD-870 treatment and the main differences are colony size.
6. For comparison purposes, it would be a good idea to compare the direct effect of NHWD-870 on in […]
marrow derived macrophage proliferation and gene expression in vitro). […]

[2] = system: BRD4 binding to the HIF1A promoter; assay: BRD4 ChIP-qPCR of the HIF1A promoter in A2780 cells; assay type: cell-based, human
Experimental: Fig. 7 NHWD-870 inhibited CSF1 expression through suppressing BRD4 and HIF1α in tumor cells. a, b Representative western blot analysis of control (Ctrl) and BRD4 knockout (KO) A375 and A2780 cells exposed to 20% or 1% O2 for 24 hours. Selected from three independent experiments. c, d Representative western blot analysis of A375 and A2780 cells treated with DMSO or 25 nM NHWD-870 and exposed to 20% or 1% O2 for 24 h. Selected from three independent experiments. e Relative HIF1 luciferase reporter activity in control (Ctrl), BRD4 knockout (KO), or NHWD-870 treated A375 and A2780 cells exposed to 20% or 1% O2 for 24 h. Data are presented as mean ± SEM from three independent experiments. f RT-qPCR analyses of CSF1 in control (Ctrl), BRD4 knockout (KO), or NHWD-870 treated A375 and A2780 cells exposed to 20% or 1% O2 for 24 hours. Data are presented as mean ± SEM from three independent experiments. g RT-qPCR analyses of HIF1A in A375 or A2780 cells treated with 15 nM NHWD-870 or DMSO control for 24 h. Data are presented as mean ± SEM from three independent experiments. h Genome browser view of BRD4 ChIP-seq peaks on the HIF1A promoter. Shown are BRD4 ChIP and input control of A375 cells (top panel) and BRD4 ChIP of MDA-MB231 cells treated with DMSO or JQ-1 (bottom panel). i BRD4 ChIP-qPCR analyses of the HIF1A promoter in A2780 cells treated with DMSO or NHWD-870 for 72 h. Data are presented as mean ± SEM from three independent experiments. j RT-qPCR analyses of CSF1 in A375 and A2780 cells were transiently transduced with HIF1α, then exposed to 1% O2 for 24 h. Ctrl, Control. Data are presented as mean ± SEM from three independent experiments. k A model showing the effects of NHWD-870 on cancer cell-TAM interaction. NHWD-870 inhibits the proliferation and survival of TAMs partly by inhibiting BRD4 activity, HIF1α expression, and CSF1 secretion by tumor cells, and downregulating CSF1R mediated ERK and PI3K/AKT signaling in TAMs. p values were calculated using two-tailed, unpaired t tests in this figure. *p < 0.05; **p < 0.01; ***p < 0.001. […]

For `Cc1nnn(C)c1-c1cnc2c3c4cnn(C)c4ccc3n([C@H](c3ccccc3)C3CCOCC3)c2c1` [NHWD-870], the “decrease of TAMs proliferation (Ki67 FACS)” value ([1]; TAMs induced by CSF1) was ~ 50%, the “fold decrease of CSF1 induced growth of macrophages” value ([1]; direct treatment of TAMs in 2D growth assays) was < 2 fold and the “ChIP-qPCR enrichment relative to input, IgG (Fig.7i)” value ([2]; A2780, 15nM 3 days) was 0.411 and 0.4665 and 0.4566. The “ChIP-qPCR enrichment relative to input, anti-BRD4 (Fig.7i)” value ([2]; A2780, 15nM 3 days) was 0.646 and 0.721 and 0.6555 and the “BRD4 binding to the HIF1A promoter (ChIP-qPCR)” value ([2]; A2780 cells, 15nM, 72 h) was “decreased BRD4 binding to the HIF1A promoter”.
